In US20080161340A1, “Tetrahydroquinilinones, tetrahydronaphthyridones and derivatives thereof” (priority 2006, published 2008):

How the values were obtained:
Assay type in all cases: cell-based
[1] = target: T1, hCB2 (Homo sapiens, UniProt P34972); assay: cAMP assay (LANCE TR-FRET) in CHO-K1 cells stably expressing hCB2, agonist/inverse agonist; conditions: intracellular cAMP, CHO-K1 hCB2 cells prestimulated with NKH-477; + agonist, − inverse agonist
T1 construct: host or cells: CHO-K1
Description: (§1) The ability of compounds to act as agonists or inverse agonists at human CB2 and CB1 receptors (hCB2, hCB1, respectively) was determined by measuring changes in intracellular cAMP levels. Chinese Hamster Ovary (CHO-K1) cell lines stably expressing hCB2 (Genebank: X74328) or hCB1 (Genebank: X54937) were purchased from Euroscreen (Gosselies, Belgium).
(§2) Cell lines were grown in suspension in EX-CELL 302 CHO Serum-free medium (Sigma, cat #14324C) supplemented with 1% Fetal Bovine Serum, glutamine and non-essential amino-acids under 0.4 mg/mL G418 selection.
(§3) Receptor mediated responses were determined by measuring changes in intracellular cAMP using LANCE cAMP detection kit (cat #AD0264, PerkinElmer, Wellesley, Mass.) based on time-resolved fluorescence resonance energy transfer (TR-FRET). Changes in cAMP were determined in cells pre-incubated with IBMX (isobutyl methylxanthine) and prestimulated with NKH-477 (a water soluble forskolin derivative, cat #1603, Tocris, Ellisville, Mo.) to increase basal cAMP levels as detailed below.
(§4) On the day of the experiment, cells were spun at low speed for 5 min at room temperature. The supernatant was removed and cells were resuspended in stimulation buffer (Hanks Buffered Salt Solution/5 mM HEPES, containing 0.5 mM IBMX (cat #17018, Sigma) and 0.02% BSA (PerkinElmer, cat #CR84-100)). Cell clumps were removed by filtering through cell strainer 40 μm (BD Falcon, Discovery Labware, Bedford, Mass.) and diluted to 2×10^5 cells/mL. Antibody supplied with the LANCE cAMP immunoassay kit was then added according to the manufacturer's instructions. An aliquot of cells was taken for un-induced controls. To the remaining cells was added NKH-477 (a water soluble forskolin derivative, Tocris cat #1603) to a final concentration of 2-8 μM. Cells were then incubated for 30 min at room temperature prior to adding to Proxiplates containing test compounds (final DMSO concentration was less than 0.5%) with a Multidrop bulk dispenser, followed by a sixty minute incubation at room temperature. The response was stopped by addition of the detection mix supplied with the LANCE kit.
(§5) The reagents were allowed to equilibrate for three hours prior to reading on an Envision multi-mode detector (PerkinElmer). TR-FRET was measured using a 330-380 nm excitation filter, a 665 nm emission filter, dichroic mirror 380 nm and Z=1 mm.
(§6) Cyclic AMP concentrations in each well were back-calculated from a cAMP standard curve run concurrently during each assay. Each plate contained 16 wells of forskolin stimulated cells and 16 wells of forskolin plus CP55,940-treated. CP55,940-treated cells were treated with CP55,940 (Tocris cat. # 0949) at 1 μm and the maximal response was used as the full range (100%) standard. WIN55,212 (Tocris cat. # 1038) was used as an internal standard. Concentrations of cAMP were expressed as a percent of the difference of these two groups of wells. Concentration-response data including ECso (the concentration of compound producing 50% of the maximal response) and intrinsic activity (the percent maximal activation compared to full activation by CP55,940) were determined using a four-parameter non-linear regression algorithm (Xlfit equation 251, IDBS).

[2] = target: T2, hCB1 (Homo sapiens, UniProt P21554); assay: cAMP assay (LANCE TR-FRET) in CHO-K1 cells stably expressing hCB1, agonist/inverse agonist; conditions: intracellular cAMP, CHO-K1 hCB1 cells prestimulated with NKH-477, + agonist, − inverse agonist; for EC50: read-out: hCB1 EC50 class
T2 construct: host or cells: CHO-K1
Description: as §1, §2, §3, §4, §5, §6

[3] = target: T3, rCB2 (Rattus norvegicus, UniProt Q9QZN9); assay: cAMP assay, rCB2 in Table 7, agonist/inverse agonist; conditions: intracellular cAMP; + agonist, − inverse agonist
T3 sequence (Q9QZN9 1-360): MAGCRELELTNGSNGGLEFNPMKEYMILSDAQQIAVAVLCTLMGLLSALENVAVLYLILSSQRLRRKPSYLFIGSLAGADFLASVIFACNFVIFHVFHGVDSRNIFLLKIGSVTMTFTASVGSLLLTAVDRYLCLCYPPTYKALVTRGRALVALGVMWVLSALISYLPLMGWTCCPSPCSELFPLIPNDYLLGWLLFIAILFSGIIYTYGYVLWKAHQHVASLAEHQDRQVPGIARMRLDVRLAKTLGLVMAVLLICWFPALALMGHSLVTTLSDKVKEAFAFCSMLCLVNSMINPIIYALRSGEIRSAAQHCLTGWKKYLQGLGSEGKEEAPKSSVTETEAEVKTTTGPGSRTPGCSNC
Description: as §3, §4, §5, §6

T1 sequence (P34972 whole entry): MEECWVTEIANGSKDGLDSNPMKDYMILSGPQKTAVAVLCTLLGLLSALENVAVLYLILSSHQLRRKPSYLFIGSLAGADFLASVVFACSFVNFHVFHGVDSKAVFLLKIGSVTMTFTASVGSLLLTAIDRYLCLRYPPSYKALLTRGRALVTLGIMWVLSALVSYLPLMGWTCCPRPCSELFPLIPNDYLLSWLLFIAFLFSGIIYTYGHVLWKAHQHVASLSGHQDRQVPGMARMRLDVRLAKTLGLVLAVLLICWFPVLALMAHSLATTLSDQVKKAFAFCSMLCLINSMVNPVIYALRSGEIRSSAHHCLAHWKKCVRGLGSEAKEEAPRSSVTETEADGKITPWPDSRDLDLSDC
T2 sequence (P21554 whole entry): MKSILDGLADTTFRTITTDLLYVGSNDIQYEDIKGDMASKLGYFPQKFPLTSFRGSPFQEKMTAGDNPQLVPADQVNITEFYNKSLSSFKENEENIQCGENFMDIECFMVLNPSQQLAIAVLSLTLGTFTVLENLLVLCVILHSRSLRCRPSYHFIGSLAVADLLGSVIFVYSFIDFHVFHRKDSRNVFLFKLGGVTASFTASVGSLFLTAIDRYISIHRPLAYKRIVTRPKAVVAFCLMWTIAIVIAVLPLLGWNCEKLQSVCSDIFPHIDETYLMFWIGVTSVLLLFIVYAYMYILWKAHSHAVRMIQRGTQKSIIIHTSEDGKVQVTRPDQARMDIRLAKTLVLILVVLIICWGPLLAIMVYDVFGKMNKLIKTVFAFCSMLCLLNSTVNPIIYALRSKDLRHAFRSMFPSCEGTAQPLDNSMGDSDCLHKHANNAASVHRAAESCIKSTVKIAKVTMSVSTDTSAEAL

Structure (SMILES)	hCB2 EC50 class [1]	EC50 [2]	rCB2 EC50 class [3]	hCB1 EC50 class [2]
O=c1c(-c2ccoc2)cc2c(n1CC1CCC1)CCCC2 [Compound 12, 1-(cyclobutylmethyl)-3-(furan-3-yl)-5,6,7,8-tetrahydroquinolin-2(1H)-one]	+C	> 10 µM	+B	–
Cc1ccccc1Cc1cc2c(n(CC3CCC3)c1=O)CCCC2 [Compound 30, 1-(cyclobutylmethyl)-3-(2-methylbenzyl)-5,6,7,8-tetrahydroquinolin-2(1H)-one]	+A	> 10 µM	+A	–
O=c1c(-c2ccccc2)cc2c(n1CC1CCC1)CCCC2 [Compound 1, 1-(cyclobutylmethyl)-3-phenyl-5,6,7,8-tetrahydroquinolin-2(1H)-one]	+B	> 10 µM	+A	–
CCS(=O)(=O)N1CCc2c(cc(-c3cccc(Cl)c3)c(=O)n2CC2CC2)C1 [Compound 49, 3-(3-chlorophenyl)-1-(cyclopropylmethyl)-6-(ethylsulfonyl)-5,6,7,8-tetrahydro-1,6-naphthyridin-2(1H)-one]	+B	> 10 µM	+B	–
O=c1c(-c2cccnc2)cc2c(n1CC1CCC1)CCNC2 [Compound 40, 1-(cyclobutylmethyl)-3-(pyridin-3-yl)-5,6,7,8-tetrahydro-1,6-naphthyridin-2(1H)-one]	+C	> 10 µM	+B	–
CC(=O)N1CCc2c(cc(-c3cccc(Cl)c3)c(=O)n2CC2CCC2)C1 [Compound 42, 6-acetyl-3-(3-chlorophenyl)-1-(cyclobutylmethyl)-5,6,7,8-tetrahydro-1,6-naphthyridin-2(1H)-one]	+A	–	+A	+C
CS(=O)(=O)N1CCc2c(cc(-c3ccccc3F)c(=O)n2CC2CCC2)C1 [Compound 53, 1-(cyclobutylmethyl)-3-(2-fluorophenyl)-6-(methylsulfonyl)-5,6,7,8-tetrahydro-1,6-naphthyridin-2(1H)-one]	+A	> 10 µM	+A	–
O=c1c(-c2ccc(C(F)(F)F)cc2)cc2c(n1CC1CCCCC1)CCCC2 [Compound 23, 1-(cyclohexylmethyl)-3-(4-(trifluoromethyl)phenyl)-5,6,7,8-tetrahydroquinolin-2(1H)-one]	+B	–	−B	+B
O=c1c(Cc2ccncc2)cc2c(n1CC1CCC1)CCCC2 [Compound 32, 1-(cyclobutylmethyl)-3-(pyridin-4-ylmethyl)-5,6,7,8-tetrahydroquinolin-2(1H)-one]	+B	> 10 µM	+B	–
O=c1c(Cc2ccccc2F)cc2c(n1CC1CCC1)CCCC2 [Compound 31, 1-(cyclobutylmethyl)-3-(2-fluorobenzyl)-5,6,7,8-tetrahydroquinolin-2(1H)-one]	+A	> 10 µM	+A	–
O=c1c(-c2ccccc2C(F)(F)F)cc2c(n1CC1CCC1)CCCC2 [Compound 20, 1-(cyclobutylmethyl)-3-(2-(trifluoromethyl)phenyl)-5,6,7,8-tetrahydroquinolin-2(1H)-one]	+B	> 10 µM	+B	–
O=c1c(Cc2ccc(F)cc2)cc2c(n1CC1CCC1)CCCC2 [Compound 33, 1-(cyclobutylmethyl)-3-(4-fluorobenzyl)-5,6,7,8-tetrahydroquinolin-2(1H)-one]	+B	> 10 µM	+B	–
CC(C)CS(=O)(=O)N1CCc2c(cc(-c3cccc(Cl)c3)c(=O)n2CC2CC2)C1 [Compound 50, 3-(3-chlorophenyl)-1-(cyclopropylmethyl)-6-(isobutylsulfonyl)-5,6,7,8-tetrahydro-1,6-naphthyridin-2(1H)-one]	+C	–	−B	−B
O=c1c(-c2ccccc2Cl)cc2c(n1CC1CCC1)CCCC2 [Compound 18, 3-(2-chlorophenyl)-1-(cyclobutylmethyl)-5,6,7,8-tetrahydroquinolin-2(1H)-one]	+B	> 10 µM	+B	–
O=c1c(-c2cccs2)cc2c(n1CC1CCC1)CCCC2 [Compound 9, 1-(cyclobutylmethyl)-3-(thiophen-2-yl)-5,6,7,8-tetrahydroquinolin-2(1H)-one]	+B	> 10 µM	+C	–
CS(=O)(=O)N1CCc2c(cc(Cc3ccccc3F)c(=O)n2CC2CCC2)C1 [Compound 58, 1-(cyclobutylmethyl)-3-(2-fluorobenzyl)-6-(methylsulfonyl)-5,6,7,8-tetrahydro-1,6-naphthyridin-2(1H)-one]	+A	–	+A	+B
O=c1c(-c2cccnc2)cc2c(n1CC1CCC1)CCCC2 [Compound 10, 1-(cyclobutylmethyl)-3-(pyridin-3-yl)-5,6,7,8-tetrahydroquinolin-2(1H)-one]	+B	> 10 µM	+B	–
O=c1c(-c2cccc(Cl)c2)cc2c(n1CC1CCCCC1)CCCC2 [Compound 25, 3-(3-chlorophenyl)-1-(cyclohexylmethyl)-5,6,7,8-tetrahydroquinolm-2(1H)-one]	+B	–	+A	+B
Cn1cc(-c2cc3c(n(CC4CCC4)c2=O)CCCC3)cn1 [Compound 26, 1-(cyclobutylmethyl)-3-(1-methyl-1H-pyrazol-4-yl)-5,6,7,8-tetrahydroquinolin-2(1H)-one]	+B	> 10 µM	+A	–
CC(=O)N1CCc2c(cc(-c3ccccc3F)c(=O)n2CC2CCC2)C1 [Compound 54, 6-acetyl-1-(cyclobutylmethyl)-3-(2-fluorophenyl)-5,6,7,8-tetrahydro-1,6-naphthyridin-2(1H)-one]	+B	> 10 µM	+A	–
O=c1c(-c2cccc(Cl)c2)cc2c(n1CC1CC1)CCCC2 [Compound 22, 3-(3-chlorophenyl)-1-(cyclopropylmethyl)-5,6,7,8-tetrahydroquinolin-2(1H)-one]	+B	> 10 µM	−B	–
CS(=O)(=O)N1CCc2c(cc(-c3cccc(Cl)c3)c(=O)n2CC2CCC2)C1 [Compound 41, 3-(3-chlorophenyl)-1-(cyclobutylmethyl)-6-(methylsulfonyl)-5,6,7,8-tetrahydro-1,6-naphthyridin-2(1H)-one]	+A	> 10 µM	+A	–
O=c1c(-c2cccc(C(F)(F)F)c2)cc2c(n1CC1CCC1)CCCC2 [Compound 6, 1-(cyclobutylmethyl)-3-(3-(trifluoromethyl)phenyl)-5,6,7,8-tetrahydroquinolin-2(1H)-one]	+A	> 10 µM	+A	–
